From US10548870B2, “Method for treating multiple sclerosis” (OLATEC THERAPEUTICS LLC, priority 2017, dated 2020)

Tests used:
Type in all cases: in vivo, C57Bl/6 mice
[1] = system: experimental allergic encephalomyelitis (EAE) mice; assay: Prophylactic oral treatment (dapansutrile-enriched diet) in EAE mice
Method: (§1) Active immunization was done in female adult (8 weeks old) C57Bl/6 mice. Briefly, mice were subcutaneously injected with […] of myelin oligodendrocyte glycoprotein (MOG)35-55 peptide ([…], SEQ ID NO: 1) emulsified in complete Freund's Adjuvant (Sigma Aldrich) supplemented with 4 mg of micobacterioum tuberculosis H37RA (DIFCO Laboratories). On day 0 and 2 post-immunization, mice were also injected intraperitoneally (i.p.) with 500 ng of pertussis toxin (List Biological Laboratories).
(§2) Animals were monitored daily for signs of EAE and the scoring system is as follows: 0=no clinical symptoms, normal walking; 0.5=partial paralyzed tail, 1=fully paralyzed tail; 2=mild hind-limb weakness, quick righting reflex; 3=severe hind-limb weakness, slow righting reflex, unable to bear weight; 3.5=severe hind-limb weakness and partial paralysis of hind limb; 4=complete paralysis of at least one hind limbs; 4.5=complete paralysis of one or both one hind limbs and trunk weakness; 5=complete paralysis of one or both hind limbs, forelimb weakness or paralysis; 6=mouse is found dead by EAE.
(§3) EAE mice were euthanized at either day 21 or 23 post-immunization with an overdose of pentobarbital sodium (Dolethal) and transcardially perfused with 4% paraformaldehyde (PFA) in 0.1M phosphate buffer (PB). Lumbar segments of spinal cords were harvested, post-fixed in 4% PFA for 2 hours and cryoprotected in 30% sucrose in 0.1M at 4° C. for at least 48 hours. Spinal cords were embedded in TissueTek OCT (Sakura), cut in transversal sections (15 μm-thick) with a cryostat (Leica) between L3 and L5 segments and serially picked up on gelatine-coated glass slides. Samples were stored at −20° C.
(§4) Sections were stained with Luxol Fast Blue (LFB) (Sigma Aldrich). Briefly, after a graded dehydration, sections were placed in 1 mg/mL of LFB solution in 96% EtOH and 0.05% acetic acid overnight at 37° C. and protected from light. Then, slides were washed with 96% EtOH, rehydrated in distilled water and placed in a 0.5 mg/mL Li2CO3 solution for 3-5 minutes at room temperature. Finally, sections were washed in distilled water, dehydrated again in 100% EtOH and mounted in DPX (Sigma Aldrich). To assess the demyelinated area in the spinal cord, 6 random images per mice were captured at 10× magnification with an Olympus BX51 and the attached Olympus DP73 Camera. The total demyelinated area within the spinal cord was measured with Image J image analysis software.
(§5) EAE induction, functional assessment, and histological analysis were the same as those described in Example 2.
Starting on day 0 (day of immunization), EAE-mice were fed either a dapansutrile-enriched diet or a standard diet. […]

[2] = system: experimental allergic encephalomyelitis (EAE) mice; assay: Prophylactic intraperitoneal treatment of dapansutrile in EAE mice; settings: 60 mg/kg i.p. twice daily, Day 0 to Day 21
Method: as §1
Starting on day 0 (day of immunization), mice were injected intraperitoneally twice daily with dapansutrile (OLT1177™, 60 mg/kg) or saline until the end of the study (Day 21). Each treated group had 10 mice.
as §2, with “EAE. […]” for “EAE.”

[3] = system: experimental allergic encephalomyelitis (EAE) mice; assay: Oral gavage treatment with dapansutrile in EAE mice starting at disease onset
Method: as §1, §2, §3, §4, §5
60 mg/kg of dapansutrile was solubilized with distilled water and administered daily by oral gavage at 60 mg/kg animal weight to mice twice per day. […] Control mice were administered distilled water at the same days. […]

[4] = diet with 3.75 g dapansutrile per kg food, Day 0 to Day 23, vs standard diet (FIG. 2B)
[5] = 60 mg/kg oral gavage twice daily from disease onset, vs vehicle (FIG. 3B)

## CS(=O)(=O)CCC#N [dapansutrile, 3-methanesulfonylpropionitrile]
[1]; diet with 3.75 g dapansutrile per kg food (about 50 mg/kg/day), Day 0 to Day 23, vs standard diet (FIG. 2A)
  daily EAE clinical scores after disease onset: lower daily EAE clinical scores
[1]; [4]
  cumulative EAE score: lower cumulative EAE scores
  maximum EAE score: lower maximum EAE scores
[1]; diet with 3.75 g dapansutrile per kg food, 23 days after immunization, vs standard food (FIG. 2C)
  reduction of demyelination in the spinal cord: about 2 fold
[2]; vs saline (FIG. 1B)
  demyelination in the lumbar spinal cord (LFB staining): reduced the demyelination in the spinal cord
[2]; vs saline, significant from day 11 to day 21 (FIG. 1A)
  EAE clinical score: significant lower disease scores
[3]; 60 mg/kg oral gavage twice daily from disease onset (FIG. 3A)
  reduction in the EAE score compared to vehicle: about 1 point
[3]; [5]
  cumulative clinical EAE score: significantly reduced
  maximum clinical EAE score: significantly reduced
[3]; 60 mg/kg oral gavage twice daily from disease onset, vs vehicle (FIG. 3C)
  demyelination in LFB stained spinal cords: protection against demyelination
